Reference: PMC8662641, “Site-Specific Labeling of Endogenous Proteins Using CoLDR Chemistry” (Journal of the American Chemical Society, 2021)

Target: T1, BTK-1h (Homo sapiens, UniProt Q06187)
T1 construct: The BTK kinase domain was diluted to 2 μM in the buffer, and 2 μM 1h was added; made in house
Test: High-throughput screening with 1h-labeled BTK
Assay type: binding
Conditions: Dataset S2A; 200 μM compound, BTK-1h, 32 °C, 10 min
Description: The collection was composed of BTK binding compounds obtained in our previous luminescence screen[37] (Data set S2). […] The resulting BTK-1h (50 μL) was added to the inhibitors.

T1 sequence (Q06187 402-655): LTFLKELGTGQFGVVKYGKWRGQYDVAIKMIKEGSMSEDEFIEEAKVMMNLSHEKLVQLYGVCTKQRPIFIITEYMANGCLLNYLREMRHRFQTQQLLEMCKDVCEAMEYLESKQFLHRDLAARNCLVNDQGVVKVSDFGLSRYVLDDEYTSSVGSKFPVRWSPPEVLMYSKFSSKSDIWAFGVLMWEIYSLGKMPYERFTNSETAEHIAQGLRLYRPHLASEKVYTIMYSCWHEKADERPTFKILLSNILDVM

Point of comparison: `Cl.O=C1Cc2cc(CCN3CCN(c4nsc5ccccc45)CC3)c(Cl)cc2N1` [PCM-0065598-003], “FI (650)/FI (620)” value 1.0625. Against it:
- CC#CC(=O)Nc1ccc2ncnc(Nc3cccc(Br)c3)c2c1 [PCM-0215449-001] — lower, 1.009
- Cc1cc(O)c(-c2ccc([C@@H](C)CN)cc2)c2c1[nH]c(=O)c1sccc12 [PCM-0215772-001] — higher, 1.102
- NC(=O)Nc1cc(-c2cccc(F)c2)sc1C(=O)N[C@H]1CCCNC1 [PCM-0095092-003] — higher, 1.105
- COc1ccc(CC(=O)Nc2nc3c(s2)CCc2ccccc2-3)cc1OC [PCM-0215753-001] — lower, 0.9809
- Oc1ccc(Nc2nc(-c3ccc(Cl)cc3)cs2)cc1 [PCM-0095692-002] — lower, 1.023
- Cc1cc(C)nc(NS(=O)(=O)c2ccc(NC(=S)NC(=O)COc3ccc(Br)cc3Cl)cc2)n1 [PCM-0095801-002] — lower, 0.8921
- Cc1ccc(C(=O)Nc2ccc(CN3CCN(C)CC3)c(C(F)(F)F)c2)cc1C#Cc1cnc2cccnn12 [PCM-0095174-003] — lower, 1.022
- C=CC(=O)Nc1cc(Nc2nccc(-c3c[nH]c4ccccc34)n2)c(OC)cc1N(C)CCN(C)C [PCM-0215489-001] — higher, 1.101
- O=C([O-])CCN1C(=O)/C(=C/c2ccc(-c3ccc([N+](=O)[O-])cc3)o2)SC1=S.[K+] [PCM-0215696-001] — lower, 0.9958
- Cc1nc(Nc2ccc(F)cc2)nc(N2CCc3ccccc3C2C)c1C.Cl (stereo not drawn) [PCM-0216015-001] — higher, 1.147
- O=C(Nc1c[nH]nc1-c1nc2ccc(CN3CCOCC3)cc2[nH]1)NC1CC1 [PCM-0094942-002, AT9283] — higher, 2.2858
- CN1CCN(Cc2ccc(Nc3ncc(Cl)c(Nc4ccccc4S(=O)(=O)N(C)C)n3)cc2)CC1 [PCM-0215510-001] — higher, 1.221
- COc1ccc2cc3[n+](cc2c1O)CCc1cc2c(cc1-3)OCO2.[Cl-] [PCM-0216489-001] — higher, 1.203
- COC(=O)C1=C(C)NC(C)=C(C(=O)O[C@@H]2CCCN(Cc3ccccc3)C2)[C@@H]1c1cccc([N+](=O)[O-])c1.Cl [PCM-0214706-001] — higher, 1.754
- CN1CCN(Cc2ccc(-c3cnc4[nH]cc(-c5ccc6[nH]ccc6c5)c4c3)cc2)CC1 [PCM-0215377-001] — higher, 1.4774

Point of comparison: `CC#CC(=O)Nc1ccc2ncnc(Nc3cccc(Br)c3)c2c1` [PCM-0215449-001], “FI (BTK-1h)/FI (BTK-1h+Inhibitor) at 620 nm” value 1.056. Against it:
- Cc1cc(O)c(-c2ccc([C@@H](C)CN)cc2)c2c1[nH]c(=O)c1sccc12 [PCM-0215772-001] — higher, 1.063
- NC(=O)Nc1cc(-c2cccc(F)c2)sc1C(=O)N[C@H]1CCCNC1 [PCM-0095092-003] — higher, 1.137
- COc1ccc(CC(=O)Nc2nc3c(s2)CCc2ccccc2-3)cc1OC [PCM-0215753-001] — lower, 1.022
- Oc1ccc(Nc2nc(-c3ccc(Cl)cc3)cs2)cc1 [PCM-0095692-002] — lower, 1.009
- Cc1cc(C)nc(NS(=O)(=O)c2ccc(NC(=S)NC(=O)COc3ccc(Br)cc3Cl)cc2)n1 [PCM-0095801-002] — lower, 1.024
- Cc1ccc(C(=O)Nc2ccc(CN3CCN(C)CC3)c(C(F)(F)F)c2)cc1C#Cc1cnc2cccnn12 [PCM-0095174-003] — higher, 1.075
- C=CC(=O)Nc1cc(Nc2nccc(-c3c[nH]c4ccccc34)n2)c(OC)cc1N(C)CCN(C)C [PCM-0215489-001] — lower, 1.031
- O=C([O-])CCN1C(=O)/C(=C/c2ccc(-c3ccc([N+](=O)[O-])cc3)o2)SC1=S.[K+] [PCM-0215696-001] — lower, 1.02
- Cc1nc(Nc2ccc(F)cc2)nc(N2CCc3ccccc3C2C)c1C.Cl (stereo not drawn) [PCM-0216015-001] — lower, 1.02
- O=C(Nc1c[nH]nc1-c1nc2ccc(CN3CCOCC3)cc2[nH]1)NC1CC1 [PCM-0094942-002, AT9283] — higher, 1.798
- CN1CCN(Cc2ccc(Nc3ncc(Cl)c(Nc4ccccc4S(=O)(=O)N(C)C)n3)cc2)CC1 [PCM-0215510-001] — higher, 1.15
- COc1ccc2cc3[n+](cc2c1O)CCc1cc2c(cc1-3)OCO2.[Cl-] [PCM-0216489-001] — lower, 0.9862
- COC(=O)C1=C(C)NC(C)=C(C(=O)O[C@@H]2CCCN(Cc3ccccc3)C2)[C@@H]1c1cccc([N+](=O)[O-])c1.Cl [PCM-0214706-001] — lower, 1.03
- CN1CCN(Cc2ccc(-c3cnc4[nH]cc(-c5ccc6[nH]ccc6c5)c4c3)cc2)CC1 [PCM-0215377-001] — lower, 1.04
- Cl.O=C1Cc2cc(CCN3CCN(c4nsc5ccccc45)CC3)c(Cl)cc2N1 [PCM-0065598-003] — lower, 1.055
- CC#CC(=O)N1CC[C@@H](n2c(=O)n(-c3ccc(Oc4ccccc4)cc3)c3c(N)ncnc32)C1 [PCM-0215519-001, ONO-4059] — higher, 2.544

Same assay, conditions: Dataset S2B; 200 μM inhibitor added to BTK-1h (2 μm)

For `CC#CC(=O)N1CC[C@@H](n2c(=O)n(-c3ccc(Oc4ccccc4)cc3)c3c(N)ncnc32)C1` [PCM-0215519-001, ONO-4059], the “FI (BTK-1h)/FI (BTK-1h+Inhibitor) at 620 nm” value was 4.404.

Same assay, conditions: Dataset S2C; BTK-1h with inhibitor

For `O=C(Nc1c[nH]nc1-c1nc2ccc(CN3CCOCC3)cc2[nH]1)NC1CC1` [PCM-0094942-002, AT9283], the “FI (650)/FI (620)” value was 1.798.

Target: BTK (Homo sapiens, UniProt Q06187)
Test: not given
Design: BTK kinase domain was expressed and purified as previously reported; made in house; method as in Reddi et al., J. Am. Chem. Soc. 2021, 143 (13), 4979–4992
Conditions: ref Reddi et al., J. Am. Chem. Soc. 2021, 143 (13), 4979–4992; cited from earlier work

BTK, sequence (Q06187 402-655 limits assumed): as the sequence (Q06187 402-655) above

Point of comparison: `Cc1ccc(C(=O)Nc2ccc(CN3CCN(C)CC3)c(C(F)(F)F)c2)cc1C#Cc1cnc2cccnn12` [PCM-0095174-003], “BTK Inhibition reported in luminescence assay*” value 92.4. Against it:
- CC#CC(=O)Nc1ccc2ncnc(Nc3cccc(Br)c3)c2c1 [PCM-0215449-001] — higher, 102.8
- Cc1cc(O)c(-c2ccc([C@@H](C)CN)cc2)c2c1[nH]c(=O)c1sccc12 [PCM-0215772-001] — lower, 70.3
- NC(=O)Nc1cc(-c2cccc(F)c2)sc1C(=O)N[C@H]1CCCNC1 [PCM-0095092-003] — lower, 86.9
- COc1ccc(CC(=O)Nc2nc3c(s2)CCc2ccccc2-3)cc1OC [PCM-0215753-001] — lower, 55.9
- Oc1ccc(Nc2nc(-c3ccc(Cl)cc3)cs2)cc1 [PCM-0095692-002] — lower, 84.8
- Cc1cc(C)nc(NS(=O)(=O)c2ccc(NC(=S)NC(=O)COc3ccc(Br)cc3Cl)cc2)n1 [PCM-0095801-002] — lower, 59.5
- C=CC(=O)Nc1cc(Nc2nccc(-c3c[nH]c4ccccc34)n2)c(OC)cc1N(C)CCN(C)C [PCM-0215489-001] — lower, 91.7
- O=C([O-])CCN1C(=O)/C(=C/c2ccc(-c3ccc([N+](=O)[O-])cc3)o2)SC1=S.[K+] [PCM-0215696-001] — lower, 59.5
- Cc1nc(Nc2ccc(F)cc2)nc(N2CCc3ccccc3C2C)c1C.Cl (stereo not drawn) [PCM-0216015-001] — lower, 79.3
- O=C(Nc1c[nH]nc1-c1nc2ccc(CN3CCOCC3)cc2[nH]1)NC1CC1 [PCM-0094942-002, AT9283] — higher, 93.8
- CN1CCN(Cc2ccc(Nc3ncc(Cl)c(Nc4ccccc4S(=O)(=O)N(C)C)n3)cc2)CC1 [PCM-0215510-001] — lower, 67.2
- COc1ccc2cc3[n+](cc2c1O)CCc1cc2c(cc1-3)OCO2.[Cl-] [PCM-0216489-001] — higher, 97.3
- COC(=O)C1=C(C)NC(C)=C(C(=O)O[C@@H]2CCCN(Cc3ccccc3)C2)[C@@H]1c1cccc([N+](=O)[O-])c1.Cl [PCM-0214706-001] — lower, 80.9
- CN1CCN(Cc2ccc(-c3cnc4[nH]cc(-c5ccc6[nH]ccc6c5)c4c3)cc2)CC1 [PCM-0215377-001] — higher, 111
- Cl.O=C1Cc2cc(CCN3CCN(c4nsc5ccccc45)CC3)c(Cl)cc2N1 [PCM-0065598-003] — lower, 52.1
